From article PMC9321930, “Modelling the Human Blood–Brain Barrier in Huntington Disease” (International Journal of Molecular Sciences, 2022)
Read-outs that look alike come from different tables or passages of the source.

Experiments:
[1] = tested on: all iBMECs; experiment: Inhibition of substrate transport by transporter inhibitors, all iBMECs; format: cell-based, human
Experimental: (§1) The measurement of TEER, transport studies, and the derivation of permeability coefficients were carried out as reported. In each filter, a paracellular marker (radiolabelled sucrose or LY) was added as internal control of the tightness of the monolayer. The amounts of radiotracer and fluorescent tracers were determined by liquid scintillation (Top Count-NXT, Microplate Scintillation and Luminescence counter from Perkin Elmer, Milan, Italy) and fluorescence spectrophotometry (SAFIRE TECAN, Microplate Fluorescence reader, Männedorf, Switzerland), respectively. In efflux and influx transport assays, before the addition of the compounds, filters were pre-incubated for 15 min at 37 °C with or without inhibitors and/or substrates: 2 µM elacridar (PGP inhibition), 2 µM of KO143 (BCRP inhibition), 10 µM JPH203 (LAT-1 inhibition), and 200 µM of phloretin (GLUT inhibition). Each test compound was assayed in triplicates. Transferrin from Human Serum, Alexa Fluor™ 594 Conjugate (T13343 Invitrogen™ from Thermo Fisher, Monza, Italy) was incubated (2.5 µM) in HBSS-20 mM Hepes pH 7.4 containing 1% BSA for 2 h, at 37 °C, and 5% CO2 and on ice at 4 °C. At the end of the incubation, aliquots from both compartments were collected and the fluorescent tracer was quantified.

[2] = Table S4; cited from earlier work
[3] = Transport assay (permeability) across iBMEC_71Q transwell BBB model; conditions: female, human
[4] = Transport assay (permeability) across iBMEC_109Q transwell BBB model; conditions: female, human
[5] = Transport assay (permeability) across iBMEC_33Q transwell BBB model; conditions: female, human
[6] = tested on: GLUT; experiment: in vitro; conditions: female, human
[7] = tested on: iBMEC_71Q; experiment: Transport assay (permeability) across iBMEC_71Q transwell BBB model; conditions: for Permeability iBMEC_71Q: Table 1, compound alone, mean ± SE, n > 6, compounds marked ^a calculated from Ptotal
[8] = tested on: iBMEC_109Q; experiment: Transport assay (permeability) across iBMEC_109Q transwell BBB model; conditions: for Permeability iBMEC_109Q: Table 1, compound alone, mean ± SE, n > 6, compounds marked ^a calculated from Ptotal
[9] = tested on: iBMEC_33Q; experiment: Transport assay (permeability) across iBMEC_33Q transwell BBB model; conditions: for Permeability iBMEC_33Q: Table 1, compound alone, mean ± SE, n > 6, compounds marked ^a calculated from Ptotal
[10] = tested on: iBMEC_109Q
[11] = tested on: iBMEC_33Q
[12] = tested on: iBMEC_71Q
[13] = tested on: iBMEC_33Q; experiment: TNFα treatment, inflammatory gene expression (qRT-PCR), iBMEC_33Q; format: cell-based, human; conditions: 50 ng/mL TNFα, 48 h, versus untreated cells
Experimental: (§2) To evaluate the self-renewal capacity and the pluripotency as well as the trilineage differentiation potential, mRNA was subjected to the hPSC scorecard assay (Cat. A15872, Thermo Fisher, Monza, Italy) after RNA extraction from iPSC colonies with RNeasy mini kit (Cat. 74106, Qiagen, Hilden, Germany). cDNA was obtained with High-capacity cDNA reverse transcription kit (Cat. 4374966, Thermo Fisher, Monza, Italy). The expression of inflammatory genes after TNFα treatment was evaluated using the TaqMan™ Array Human Inflammation Panel (Cat. 4378722, Applied Biosystem, Foster City, CA, USA). qRT-PCR was performed in QuantStudio 12 K Flex (Thermo Fisher, Monza, Italy). The analysis of the hPSC score was conducted with the hPSC Score Card Panel software.
(§3) To mimic a neuroinflammatory condition, cells in transwells were treated with 50 ng/mL of TNFα for 48 h before RNA extraction.

[14] = tested on: iBMEC_71Q; experiment: TNFα treatment, inflammatory gene expression (qRT-PCR), iBMEC_71Q; format: cell-based, human; conditions: 50 ng/mL TNFα, 48 h, versus untreated cells
Experimental: as §2, §3

[15] = tested on: iBMEC_109Q; experiment: TNFα treatment, inflammatory gene expression (qRT-PCR), iBMEC_109Q; format: cell-based, human; conditions: 50 ng/mL TNFα, 48 h, versus untreated cells
Experimental: as §2, §3

[16] = tested on: iBMECs 109Q; experiment: Receptor-mediated transcytosis of fluorescent transferrin, iBMEC 109Q; format: in vitro ADME, human; conditions: for Transferrin transported: 109Q, basal compartment after 2 h, 2.5 µM, mean ± sd
Experimental: as §1

[17] = tested on: iBMECs 33Q; experiment: Receptor-mediated transcytosis of fluorescent transferrin, iBMEC 33Q; format: in vitro ADME, human; conditions: basal compartment after 2 h, 2.5 µM, mean ± sd
Experimental: as §1

[18] = tested on: iBMECs 71Q; experiment: Receptor-mediated transcytosis of fluorescent transferrin, iBMEC 71Q; format: in vitro ADME, human; conditions: for Transferrin transported: 71Q, basal compartment after 2 h, 2.5 µM, mean ± sd
Experimental: as §1

[19] = tested on: rat cerebral microcirculation; conditions: cited from earlier work

For Nc1cc(COc2c(Cl)cc(C[C@H](N)C(=O)O)cc2Cl)c2oc(-c3ccccc3)nc2c1 [JPH203], the “Reduction of leucine transport” value ([1]; 10 µM JPH203, all models) was “about 80%”.

For O=C(O)c1cc(=O)c2ccccc2[nH]1 [KYNA, kynurenic acid], the “Human Kp,uu,CSF” value [2] is listed as 0.024.

For N[C@@H](Cc1ccc(O)c(O)c1)C(=O)O [L-DOPA], the “Human Kp,uu,CSF” value [2] is listed as 0.49.

For N=C(N)NCCC[C@H](N)C(=O)O [arginine], the “Human Kp,uu,CSF” value [2] is listed as 0.28.

For CC(NC(C)(C)C)C(=O)c1cccc(Cl)c1 (stereo not drawn) [bupropion], the “Human Kp,uu,CSF” value [2] is listed as 1.11.

In the case of Cn1c(=O)c2c(ncn2C)n(C)c1=O [caffeine], the “Human Kp,uu,CSF” value [2] is listed as 1.00.

For NC(=O)N1c2ccccc2C=Cc2ccccc21 [carbamazepine], the “Human Kp,uu,CSF” value [2] is listed as 0.24.

For CN(C)CCCC1(c2ccc(F)cc2)OCc2cc(C#N)ccc21 (stereo not drawn) [citalopram], the “Human Kp,uu,CSF” value [2] is listed as 1.77.

O=C1OC2(c3ccc(O)cc3Oc3cc(O)ccc32)c2ccccc21 [fluorescein] gave a Papp [3] of 0.24 ± 0.02 ×10⁻⁶ cm/s, a Papp [4] of 0.8 ± 0.01 ×10⁻⁶ cm/s and a Papp [5] of 0.11 ± 0.01 ×10⁻⁶ cm/s.

For OC[C@H]1OC(O)[C@H](O)[C@@H](O)[C@@H]1O (stereo partly drawn) [glucose], the “Human Kp,uu,CSF” value [2] is given as 0.65 and the Papp A→B [6] is given as 6.3 ×10⁻⁶ cm/s.

For N[C@@H](CCC(=O)O)C(=O)O [glutamate], the “Efflux Ratio” value ([7]; 71Q, no inhibitor) was 2.0, the “Permeability A-B” value ([7]; 71Q, no inhibitor, mean ± SD) was 3.3 ± 0.1 ×10^−6 cm/s and the “Permeability B-A” value ([7]; 71Q, no inhibitor, mean ± SD) was 6.8 ± 0.6 ×10^−6 cm/s. For the same compound, the “Permeability iBMEC_71Q” value [7] was 3.3 ± 0.1 ×10^−6 cm/s, the “Efflux Ratio” value ([8]; 109Q, no inhibitor) was 1.3 and the “Permeability A-B” value ([8]; 109Q, no inhibitor, mean ± SD) was 7.2 ± 0.7 ×10^−6 cm/s. For the same compound, the “Permeability B-A” value ([8]; 109Q, no inhibitor, mean ± SD) was 9.0 ± 0.5 ×10^−6 cm/s, the “Permeability iBMEC_109Q” value [8] was 7.2 ± 0.7 ×10^−6 cm/s and the “Efflux Ratio” value ([9]; 33Q, no inhibitor) was 1.8. The “Permeability A-B” value ([9]; 33Q, no inhibitor, mean ± SD) was 4.1 ± 0.2 ×10^−6 cm/s, the “Permeability B-A” value ([9]; 33Q, no inhibitor, mean ± SD) was 7.5 ± 0.5 ×10^−6 cm/s and the “Permeability iBMEC_33Q” value [9] was 4.1 ± 0.2 ×10^−6 cm/s.

In the case of CC(O)C(=O)O (stereo not drawn) [lactate], the “Permeability iBMEC_109Q” value [10] is reported as 52.6 ± 5.7 ×10^−6 cm/s, the “Permeability iBMEC_33Q” value [11] is reported as 53.8 ± 6.7 ×10^−6 cm/s and the “Permeability iBMEC_71Q” value [12] is reported as 53.2 ± 3.6 ×10^−6 cm/s.

In the case of CC(C)C[C@H](N)C(=O)O [leucine], the “Human Kp,uu,CSF” value [2] is given as 0.12.

For CN(Cc1cnc2nc(N)nc(N)c2n1)c1ccc(C(=O)N[C@@H](CCC(=O)O)C(=O)O)cc1 [methotrexate], the “Human Kp,uu,CSF” value [2] is given as 0.02.

For N[C@@H](Cc1ccccc1)C(=O)O [phenylalanine], the Papp [3] is listed as 21.4 ± 1.4 ×10⁻⁶ cm/s, the “Human Kp,uu,CSF” value [2] is listed as 0.28 and the Papp [4] is listed as 30.4 ± 3 ×10⁻⁶ cm/s. The Papp [5] was 25.8 ± 1.5 ×10⁻⁶ cm/s.

For O=C1NC(=O)C(c2ccccc2)(c2ccccc2)N1 [phenytoin], the Papp [3] is given as 20.9 ± 1 ×10⁻⁶ cm/s, the “Human Kp,uu,CSF” value [2] is given as 0.19 and the Papp [4] is given as 27.7 ± 1.5 ×10⁻⁶ cm/s. The Papp [5] was 18.6 ± 0.2 ×10⁻⁶ cm/s.

For O=C(CCc1ccc(O)cc1)c1c(O)cc(O)cc1O [phloretin], the inhibition at 200 µM ([1]; Homo sapiens, 200 µM phloretin, both directions (apical to basal and basal to apical), all iBMECs, read-out: Inhibition of glucose transport) was 50 to 60%.

In the case of TNFα, the “Upregulation of ICAM-1 expression after TNFα treatment” value (shortened to “Upregulation of ICAM-1 expression”) ([13]; 33Q) is reported as 9 fold, the “Upregulation of VCAM1 expression after TNFα treatment” value (“Upregulation of VCAM1 expression” for short) ([13]; iBMEC 33Q) is reported as “more than 40 fold” and the “Upregulation of ICAM-1 expression” value ([14]; 71Q) is reported as “about 2 fold”. For the same compound, the “Upregulation of VCAM1 expression” value ([14]; iBMEC 71Q) was “more than 40 fold”, the “Upregulation of ICAM-1 expression” value ([15]; 109Q) was “about 2 fold” and the “Upregulation of VCAM1 expression” value ([15]; iBMEC_109Q) was “none”.

For “Transferrin: Transferrin from Human Serum, Alexa Fluor 594 Conjugate”, the Transferrin transported ([16]; 4°C) was 4.0 ± 1.0 ng, the Transferrin transported ([16]; 37°C) was 49.0 ± 13.0 ng and the “Higher level of basal accumulation of transferrin” value ([16]; iBMEC_109Q versus healthy model) was “about 5 fold”. For the same compound, the Transferrin transported ([17]; 4°C) was 2.8 ± 0.4 ng, the Transferrin transported ([17]; 37°C) was 4.1 ± 0.7 ng and the Transferrin transported ([18]; 4°C) was 3.7 ± 0.3 ng. For the same compound, the Transferrin transported ([18]; 37°C) was 7.3 ± 0.4 ng and the “Higher level of basal accumulation of transferrin” value ([18]; iBMEC_71Q versus healthy model) was about 2 fold.

With [D-Ala2]deltorphin-II the “Permeability iBMEC_71Q” value [7] was 0.92 ± 0.01 ×10^−6 cm/s, the “Permeability iBMEC_109Q” value [8] was 1.01 ± 0.02 ×10^−6 cm/s and the “Permeability iBMEC_33Q” value [9] was 0.77 ± 0.08 ×10^−6 cm/s.

In the case of lucifer yellow, the “Permeability P in vivo” value [19] is given as 1 − 2 × 10^−7 cm/s, the “Efflux Ratio” value [10] is given as 1.0 and the “LY permeability, time course” value [10] is given as “exceeded 5 × 10^−7 cm/s”. For the same compound, the “Permeability A-B” value [10] was 0.70 ± 0.03 ×10^−6 cm/s, the “Permeability B-A” value [10] was 0.70 ± 0.1 ×10^−6 cm/s and the “Permeability iBMEC_109Q, paracellular markers” value [10] was 7.0 ± 0.3 x10^-7 cm/s. For the same compound, the “Efflux Ratio” value [11] was 0.9, the “LY permeability, time course” value [11] was at least 0.5 ×10⁻⁶ cm/s and the “Permeability A-B” value [11] was 0.23 ± 0.02 ×10^−6 cm/s. The “Permeability B-A” value [11] was 0.21 ± 0.04 ×10^−6 cm/s, the “Permeability iBMEC_33Q, paracellular markers” value [11] was 2.3 ± 0.2 x10^-7 cm/s and the “Efflux Ratio” value [12] was 0.9. The “LY permeability, time course” value [12] was at least 0.5 ×10⁻⁶ cm/s, the “Permeability A-B” value [12] was 0.37 ± 0.03 ×10^−6 cm/s and the “Permeability B-A” value [12] was 0.34 ± 0.06 ×10^−6 cm/s. For the same compound, the “Permeability iBMEC_71Q, paracellular markers” value [12] was 3.7 ± 0.3 x10^-7 cm/s.
